Here are results for one compound from patent US8658611B2, “Apoptosis-inducing agent for prostate cancer cells” (priority 2005, dated 2014).

In assay [1] the test system is Normal cells OUMS 24 (human immortalized fibroblast). The assay is described as follows: TUNEL staining after Ad-REIC plus HSP70 inhibitor or inducer. Type of assay: cell-based. Conditions: OUMS24; Ad-REIC 20 MOI; agent 250 mM added 24 hours later; TUNEL 48 hours later.
The subject of assay [2] is prostate cancer cells PC3. The assay is described as above. In kind it is cell-based, human. Conditions: Ad-REIC 20 MOI, agent 250 mM added 24 hours later, TUNEL 48 hours later. As for the experimental part:
Normal cells OUMS 24 (human immortalized fibroblast) and prostate cancer cells PC3 were used for comparison. The cells were infected with Ad-REIC at 20 MOI. 24 hours later, an HSP70 inhibitor (heat shock protein inhibitor I, CALBIOCHEM, BIOCHEMICALS) and an HSP70 inducer (Geranyl-Geranyl Acetone) (250 mM each) were separately added to a culture solution. 48 hours later, TUNEL staining was performed to determine influence upon apoptosis. FIGS. 12 and 13 show staining images for OUMS24 and of PC3, respectively. In FIGS. 12 and 13, images on the left side indicate TUNEL-staining results and images on the right side indicate DAPI-staining results. […] That is, apoptosis was induced in normal cells with the use of the HSP70 inhibitor in combination. On the other hand, apoptosis expression was inhibited in cancer cells with the use of the HSP70 inducer in combination. Further, apoptosis induction was promoted with the use of the HSP70 inhibitor in combination.

`O=CN1CC/C(=C\c2ccc3c(c2)OCO3)C1=O` [HSP70 inhibitor]: in assay [1], the “TUNEL-positive cells with combined use with Ad-REIC” value is “a large number of TUNEL-positive cells”. For the same compound, in assay [2], the “TUNEL-positive cells with combined use with Ad-REIC, versus Ad-REIC alone” value was “greater than that obtained with the use of Ad-REIC alone”.
